From ChEMBL document CHEMBL5120786, “Metabolomics-assisted discovery of a new anticancer GLS-1 inhibitor chemotype from a nortopsentin-inspired library: From phenotype screening to target identification” (Eur J Med Chem, 2022)
Calls of active or inactive are those of the source. The rule behind the calls is not given here.

Columns and labels:
[1] = system: MCF7; assay: Cytotoxicity against human MCF7 cells assessed as cell viability incubated for 72 hrs by MTT assay; assay type: functional, cell-based
[2] = system: HepG2; assay: Cytotoxicity against human HepG2 cells assessed as cell viability incubated for 72 hrs by MTT assay; assay type: functional, cell-based
[3] = system: Panel NCI-60 (60 carcinoma cell lines); assay: Anticancer activity against human NCI-60 cells assessed as cell growth inhibition incubated for 72 hrs by MTT assay; assay type: functional
[4] = system: MCF-10A; assay: Cytotoxicity against human MCF-10A cells assessed as cell viability incubated for 72 hrs by MTT assay; assay type: functional, cell-based

## Cn1cc(-c2csc(-c3cn(CCO)c4ccc(Br)cc34)n2)c2cccnc21
[1]
  Activity: Active
[2]
  Activity: Active

## COc1ccc2c(c1)c(-c1nc(-c3cn(C)c4ncccc34)cs1)cn2CCCCN1CCOCC1
[3]; read-out: GI50
  GI50: 20 nM
[3]; read-out: pGI50 (converted)
  GI50: 12000 nM
[4]
  Activity: Active

## COc1ccc2c(c1)c(-c1nc(-c3c[nH]c4ncccc34)cs1)cn2CCO
[1]
  Activity: Active
[2]
  Activity: Active

## Cn1cc(-c2csc(-c3cn(CCCCN4CCOCC4)c4ccccc34)n2)c2cccnc21
[4]
  Activity: Active

## Cn1cc(-c2csc(-c3cn(CCCCN4CCOCC4)c4ccc(F)cc34)n2)c2cccnc21
[4]
  Activity: Active

## c1cnc2[nH]cc(-c3csc(-c4cn(CCCCN5CCCCC5)c5ccccc45)n3)c2c1
[1]
  Activity: Active
[2]
  Activity: Active

## Cn1cc(-c2csc(-c3cn(CCO)c4ccccc34)n2)c2cccnc21
[1]
  Activity: Active
[2]
  Activity: Active

## OCCn1cc(-c2nc(-c3c[nH]c4ncccc34)cs2)c2cc(Br)ccc21
[1]
  Activity: Active
[2]
  Activity: Active

## Fc1ccc2c(c1)c(-c1nc(-c3c[nH]c4ncccc34)cs1)cn2CCCN1CCCCC1
[1]
  Activity: Active
[3]; read-out: GI50
  GI50: 1280 nM
[3]; read-out: pGI50 (converted)
  GI50: 3720 nM
[4]
  Activity: Active

## c1cnc2[nH]cc(-c3csc(-c4cn(CCCN5CCCCC5)c5ccccc45)n3)c2c1
[1]
  Activity: Active
[3]; read-out: GI50
  GI50: 1100 nM
[3]; read-out: pGI50 (converted)
  GI50: 2340 nM
[4]
  Activity: Active
